From patent US20240116867A1, “ALKYL […] AMMONIUM T[…] THEIR […] USES” (CAAMTECH, INC., priority 2019, published 2024)
Read-outs that look alike come from different tables or passages of the source.

How the values were obtained:
5-HT3 [1] = target: T1, 5-HT3 (Homo sapiens, UniProt P46098); conditions: read-out: Inhibition constants (Ki) 5-HT3; comparison values marked ‡ (Roth et al.); cited from earlier work
T1 construct: host or cells: HEK-293
T1 sequence (P46098 24-478): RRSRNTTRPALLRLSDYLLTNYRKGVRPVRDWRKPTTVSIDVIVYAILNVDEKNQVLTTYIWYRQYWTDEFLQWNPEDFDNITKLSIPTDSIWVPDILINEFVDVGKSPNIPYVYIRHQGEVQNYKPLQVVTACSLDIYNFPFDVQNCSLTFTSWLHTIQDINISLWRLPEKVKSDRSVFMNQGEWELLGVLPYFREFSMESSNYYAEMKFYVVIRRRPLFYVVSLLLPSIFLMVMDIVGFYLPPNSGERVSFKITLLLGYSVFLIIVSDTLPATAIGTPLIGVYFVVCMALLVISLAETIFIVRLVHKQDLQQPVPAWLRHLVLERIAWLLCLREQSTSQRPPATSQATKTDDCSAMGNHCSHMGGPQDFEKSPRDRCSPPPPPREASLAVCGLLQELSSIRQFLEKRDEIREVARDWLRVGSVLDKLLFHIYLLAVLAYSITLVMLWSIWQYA

5-HT2A [2] = target: T2, 5-HT2A (Homo sapiens, UniProt P28223); conditions: cited from earlier work
T2 construct: host or cells: HEK-293

5-HT1A [3] = target: T3, 5-HT1A (Homo sapiens, UniProt P08908); conditions: cited from earlier work
T3 construct: host or cells: HEK-293
T3 sequence (P08908 1-422): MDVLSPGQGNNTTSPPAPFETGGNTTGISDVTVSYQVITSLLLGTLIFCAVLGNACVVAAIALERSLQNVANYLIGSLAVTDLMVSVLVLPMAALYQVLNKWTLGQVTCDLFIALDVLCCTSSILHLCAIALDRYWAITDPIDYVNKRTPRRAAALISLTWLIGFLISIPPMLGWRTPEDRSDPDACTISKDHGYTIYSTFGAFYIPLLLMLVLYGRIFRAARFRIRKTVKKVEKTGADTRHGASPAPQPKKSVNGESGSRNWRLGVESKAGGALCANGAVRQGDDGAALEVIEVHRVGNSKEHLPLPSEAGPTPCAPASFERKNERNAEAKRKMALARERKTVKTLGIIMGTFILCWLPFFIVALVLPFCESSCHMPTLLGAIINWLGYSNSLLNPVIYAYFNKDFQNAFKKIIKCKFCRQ

5-HT2B [4] = target: T4, 5-HT2B (Homo sapiens, UniProt P41595); conditions: comparison values (Roth et al.); cited from earlier work
5-HT2B [5] = target: T4, 5-HT2B; assay: Radioligand binding, 5-HT2B ([125] (±)DOI), membrane homogenates of HEK-293 cells; set-up: host or cells: HEK-293; conditions: Table 5
Method: (§1) Cellular assays were performed by Eurofins CEREP SA, Celle-Lévescault, France. All receptors were separately expressed in HEK-293 cells. Cell membrane homogenates (30 μg protein) are incubated for 60 min (5-HT1A, 5-HT2A, 5-HT2B) or 120 min (5-HT3) at 22° C. with radiolabeled ligand in the absence or presence of the test compound in a buffer containing 50 mM Tris-HCl (pH 7.4), 5 mM MgCl2, 10 μM pargyline and 0.1% ascorbic acid. For 5-HT3, the buffer contained 50 mM Tris-HCl (pH 7.4), 5 mM MgCl2, and 1 mM EDTA. Binding was reported as the Ki for the inhibition of binding of well-characterized orthosteric ligands. The ligands used for each receptor were: • 5-HT1A: [^3H] 8-OH-DPAT • 5-HT2A: [^125] […]
(§2) Nonspecific binding was determined in the presence of 1 μM unlabeled ligand listed above. […] The filters were dried then counted for radioactivity in a scintillation counter (Topcount, Packard) using a scintillation cocktail (Microscint 0, Packard). The results are expressed as a percent inhibition of the control radioligand specific binding.
(§3) The IC50 values and Hill coefficients (nH) were determined by non-linear regression analysis of the competition curves generated with mean replicate values using Hill equation curve fitting Y=D+[(A−D)/(1+(C/C50)^nH)] where Y=specific binding, A=left asymptote of the curve, D=right asymptote of the curve, C=compound concentration, C50=IC50, and nH=slope factor. […]

5-HT1A [6] = target: T3, 5-HT1A; assay: Radioligand binding, 5-HT1A ([3H] 8-OH-DPAT), membrane homogenates of HEK-293 cells; conditions: Table 5
Method: as §1, §2, §3

5-HT3 [7] = target: T1, 5-HT3; assay: Radioligand binding, 5-HT3 ([3H] BRL 43694), membrane homogenates of HEK-293 cells; conditions: Table 5
Method: as §1, §2, §3

5-HT2A [8] = target: T2, 5-HT2A; assay: Radioligand binding, 5-HT2A ([125] (±)DOI), membrane homogenates of HEK-293 cells; conditions: Table 5
Method: as §1, §2, §3

[9] = comparison values (Roth et al.)

T2 sequence (P28223 whole entry): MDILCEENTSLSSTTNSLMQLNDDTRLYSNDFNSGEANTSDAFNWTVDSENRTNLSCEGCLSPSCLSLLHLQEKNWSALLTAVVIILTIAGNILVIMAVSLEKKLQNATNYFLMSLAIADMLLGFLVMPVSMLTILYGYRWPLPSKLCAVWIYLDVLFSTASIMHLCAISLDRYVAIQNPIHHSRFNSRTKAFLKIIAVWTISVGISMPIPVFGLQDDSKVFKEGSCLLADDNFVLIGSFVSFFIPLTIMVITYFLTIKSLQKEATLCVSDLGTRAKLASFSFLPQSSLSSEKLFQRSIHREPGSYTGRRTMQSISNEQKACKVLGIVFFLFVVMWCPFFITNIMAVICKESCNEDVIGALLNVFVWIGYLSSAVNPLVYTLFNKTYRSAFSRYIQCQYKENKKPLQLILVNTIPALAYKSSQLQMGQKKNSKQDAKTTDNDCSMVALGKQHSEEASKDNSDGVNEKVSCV
T4 sequence (P41595 whole entry): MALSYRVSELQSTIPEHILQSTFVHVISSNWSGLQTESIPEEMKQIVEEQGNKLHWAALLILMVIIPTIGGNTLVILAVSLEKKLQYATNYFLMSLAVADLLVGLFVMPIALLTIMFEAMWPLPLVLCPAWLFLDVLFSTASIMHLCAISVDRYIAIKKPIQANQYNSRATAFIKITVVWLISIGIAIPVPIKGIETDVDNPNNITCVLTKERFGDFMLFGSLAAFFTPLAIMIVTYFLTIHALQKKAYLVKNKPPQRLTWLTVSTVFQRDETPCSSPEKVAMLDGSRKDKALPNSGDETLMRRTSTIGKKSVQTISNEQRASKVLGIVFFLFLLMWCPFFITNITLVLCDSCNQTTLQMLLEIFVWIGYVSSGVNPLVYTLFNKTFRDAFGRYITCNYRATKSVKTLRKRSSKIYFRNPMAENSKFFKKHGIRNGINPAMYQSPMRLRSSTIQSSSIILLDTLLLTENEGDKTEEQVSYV

Compound | Ki (5-HT3 [1]) | activity at 5-HT2A (in words) (5-HT2A [2]; [9]) | activity at 5-HT1A (in words) (5-HT1A [3]; [9]) | activity at 5-HT2B (in words) (5-HT2B [4]) | Ki (5-HT2A [2]; read-out: Inhibition constants (Ki) 5-HT2A, comparison values marked ‡ (Roth et al.)) | Ki (5-HT1A [3]; read-out: Inhibition constants (Ki) 5-HT1A, comparison values marked ‡ (Roth et al.)) | activity at 5-HT2B (in words) (5-HT2B [5]) | activity at 5-HT1A (in words) (5-HT1A [6]) | activity at 5-HT3 (in words) (5-HT3 [7]) | activity at 5-HT2A (in words) (5-HT2A [8])
CN(C)CCc1c[nH]c2cccc(O)c12 [Psilocin] | > 10 µM | shows activity | shows activity | significantly more potent than 4-HO-TMTI | – | – | – | – | – | –
CN(C)CCc1c[nH]c2cccc(OP(=O)(O)O)c12 [Psilocybin] | > 10 µM | – | – | – | > 10 µM | > 10 µM | – | – | – | –
CC(=O)Oc1cccc2[nH]cc(CC[N+](C)(C)C)c12 [Example 4-AcO-TMTI, 4-Acetoxy-N,N,N-trimethyltryptammonium Iodide] | – | – | – | – | – | – | shows no activity | shows no activity | shows no activity | shows no activity
C[N+](C)(C)CCc1c[nH]c2cccc(O)c12 [Example 4-HO-TMTI, 4-Hydroxy-N,N,N-trimethyltryptammonium Iodide] | – | – | – | – | – | – | shows activity | shows activity | no activity observed | shows activity
